#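 Briefly, cells in 96-well plates were exposed to five compound concentrations for 48 h, and endpoints were estimated by linear interpolation. GI50: concentration for 50% inhibition of growth. TGI: total growth inhibition.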
# Legend:
# Assay in all cases: NCI-60 cell line screen, 48 h
# SN12C renal = system: SN12C renal
# HS 578T breast = system: HS 578T breast
# M14 melanoma = system: M14 melanoma
# NCI-H226 lung = system: NCI-H226 lung
# HT29 colon = system: HT29 colon
# SK-OV-3 ovarian = system: SK-OV-3 ovarian
# SW-620 colon = system: SW-620 colon
# KM12 colon = system: KM12 colon
# OVCAR-8 ovarian = system: OVCAR-8 ovarian
# HCT-116 colon = system: HCT-116 colon
# SNB-19 CNS = system: SNB-19 CNS
# RPMI-8226 leukemia = system: RPMI-8226 leukemia
# HL-60(TB) leukemia = system: HL-60(TB) leukemia
# ACHN renal = system: ACHN renal
# MALME-3M melanoma = system: MALME-3M melanoma
# SF-268 CNS = system: SF-268 CNS
# UACC-257 melanoma = system: UACC-257 melanoma
# OVCAR-5 ovarian = system: OVCAR-5 ovarian
# CAKI-1 renal = system: CAKI-1 renal
# EKVX NSCLC = system: EKVX NSCLC
# NCI-H23 lung = system: NCI-H23 lung
# U251 CNS = system: U251 CNS
# RXF 393 renal = system: RXF 393 renal
# A498 renal = system: A498 renal
# PC-3 prostate = system: PC-3 prostate
# NCI/ADR-RES ovarian = system: NCI/ADR-RES ovarian
# A549 NSCLC = system: A549 NSCLC
# 786-0 renal = system: 786-0 renal
# UACC-62 melanoma = system: UACC-62 melanoma
# HOP-62 NSCLC = system: HOP-62 NSCLC
# NCI-H460 lung = system: NCI-H460 lung
# OVCAR-4 ovarian = system: OVCAR-4 ovarian
# NCI-H522 lung = system: NCI-H522 lung
# MCF7 breast = system: MCF7 breast
# LOX IMVI melanoma = system: LOX IMVI melanoma
# SK-MEL-5 melanoma = system: SK-MEL-5 melanoma
# MOLT-4 leukemia = system: MOLT-4 leukemia
# HCT-15 colon = system: HCT-15 colon
# SK-MEL-2 melanoma = system: SK-MEL-2 melanoma
# HCC-2998 colon = system: HCC-2998 colon
# T-47D breast = system: T-47D breast
# MDA-MB-231 breast = system: MDA-MB-231 breast
# COLO 205 colon = system: COLO 205 colon
# SF-539 CNS = system: SF-539 CNS
# IGROV1 ovarian = system: IGROV1 ovarian
# DU-145 prostate = system: DU-145 prostate
# SK-MEL-28 melanoma = system: SK-MEL-28 melanoma
# SF-295 CNS = system: SF-295 CNS
# K-562 leukemia = system: K-562 leukemia
# MDA-MB-435 = system: MDA-MB-435
# CCRF-CEM leukemia = system: CCRF-CEM leukemia
# BT-549 breast = system: BT-549 breast
# TK-10 renal = system: TK-10 renal
# HOP-92 NSCLC = system: HOP-92 NSCLC
# UO-31 renal = system: UO-31 renal
# SNB-75 CNS = system: SNB-75 CNS
smiles,measurement,setting,value
O=C(CCCCCCNC(=O)c1csc(Br)n1)NO,GI50,SN12C renal,2950 nM
same,TGI,SN12C renal,> 33300 nM
same,GI50,HS 578T breast,917 nM
same,TGI,HS 578T breast,22100 nM
same,GI50,M14 melanoma,1640 nM
same,TGI,M14 melanoma,> 33300 nM
same,GI50,NCI-H226 lung,5170 nM
same,TGI,NCI-H226 lung,> 33300 nM
same,GI50,HT29 colon,985 nM
same,TGI,HT29 colon,5560 nM
same,GI50,SK-OV-3 ovarian,1040 nM
same,TGI,SK-OV-3 ovarian,5430 nM
same,GI50,SW-620 colon,637 nM
same,TGI,SW-620 colon,1580 nM
same,GI50,KM12 colon,2750 nM
same,TGI,KM12 colon,> 33300 nM
same,GI50,OVCAR-8 ovarian,961 nM
same,TGI,OVCAR-8 ovarian,9580 nM
same,GI50,HCT-116 colon,892 nM
same,TGI,HCT-116 colon,3780 nM
same,GI50,SNB-19 CNS,3200 nM
same,TGI,SNB-19 CNS,> 33300 nM
same,GI50,RPMI-8226 leukemia,951 nM
same,TGI,RPMI-8226 leukemia,13400 nM
same,GI50,HL-60(TB) leukemia,1270 nM
same,TGI,HL-60(TB) leukemia,> 33300 nM
same,GI50,ACHN renal,1180 nM
same,TGI,ACHN renal,7530 nM
same,GI50,MALME-3M melanoma,787 nM
same,TGI,MALME-3M melanoma,> 33300 nM
same,GI50,SF-268 CNS,2430 nM
same,TGI,SF-268 CNS,> 33300 nM
same,GI50,UACC-257 melanoma,853 nM
same,TGI,UACC-257 melanoma,3330 nM
same,GI50,OVCAR-5 ovarian,1160 nM
same,TGI,OVCAR-5 ovarian,> 33300 nM
same,GI50,CAKI-1 renal,1120 nM
same,TGI,CAKI-1 renal,8220 nM
same,GI50,EKVX NSCLC,1990 nM
same,TGI,EKVX NSCLC,> 33300 nM
same,GI50,NCI-H23 lung,1900 nM
same,TGI,NCI-H23 lung,> 33300 nM
same,GI50,U251 CNS,1530 nM
same,TGI,U251 CNS,7230 nM
same,GI50,RXF 393 renal,929 nM
same,TGI,RXF 393 renal,3110 nM
same,GI50,A498 renal,676 nM
same,TGI,A498 renal,2080 nM
same,GI50,PC-3 prostate,2430 nM
same,TGI,PC-3 prostate,> 33300 nM
same,GI50,NCI/ADR-RES ovarian,694 nM
same,TGI,NCI/ADR-RES ovarian,2500 nM
same,GI50,A549 NSCLC,1350 nM
same,TGI,A549 NSCLC,14400 nM
same,GI50,786-0 renal,2440 nM
same,TGI,786-0 renal,> 33300 nM
same,GI50,UACC-62 melanoma,699 nM
same,TGI,UACC-62 melanoma,2500 nM
same,GI50,HOP-62 NSCLC,1410 nM
same,TGI,HOP-62 NSCLC,> 33300 nM
same,GI50,NCI-H460 lung,1250 nM
same,TGI,NCI-H460 lung,> 33300 nM
same,GI50,OVCAR-4 ovarian,3650 nM
same,TGI,OVCAR-4 ovarian,> 33300 nM
same,GI50,NCI-H522 lung,844 nM
same,TGI,NCI-H522 lung,5090 nM
same,GI50,MCF7 breast,1410 nM
same,TGI,MCF7 breast,> 33300 nM
same,GI50,LOX IMVI melanoma,47.3 nM
same,TGI,LOX IMVI melanoma,3790 nM
same,GI50,SK-MEL-5 melanoma,1240 nM
same,TGI,SK-MEL-5 melanoma,4900 nM
same,GI50,MOLT-4 leukemia,1020 nM
same,TGI,MOLT-4 leukemia,> 33300 nM
same,GI50,HCT-15 colon,2160 nM
same,TGI,HCT-15 colon,> 33300 nM
same,GI50,SK-MEL-2 melanoma,1180 nM
same,TGI,SK-MEL-2 melanoma,6730 nM
same,GI50,HCC-2998 colon,3400 nM
same,TGI,HCC-2998 colon,13100 nM
same,GI50,T-47D breast,648 nM
same,TGI,T-47D breast,1830 nM
same,GI50,MDA-MB-231 breast,2010 nM
same,TGI,MDA-MB-231 breast,> 33300 nM
same,GI50,COLO 205 colon,700 nM
same,TGI,COLO 205 colon,1780 nM
same,GI50,SF-539 CNS,1620 nM
same,TGI,SF-539 CNS,> 33300 nM
same,GI50,IGROV1 ovarian,1690 nM
same,TGI,IGROV1 ovarian,> 33300 nM
same,GI50,DU-145 prostate,1210 nM
same,TGI,DU-145 prostate,> 33300 nM
same,GI50,SK-MEL-28 melanoma,1290 nM
same,TGI,SK-MEL-28 melanoma,> 33300 nM
same,GI50,SF-295 CNS,1660 nM
same,TGI,SF-295 CNS,9370 nM
same,GI50,K-562 leukemia,1130 nM
same,TGI,K-562 leukemia,> 33300 nM
same,GI50,MDA-MB-435,1050 nM
same,TGI,MDA-MB-435,6300 nM
same,GI50,CCRF-CEM leukemia,1060 nM
same,TGI,CCRF-CEM leukemia,> 33300 nM
same,GI50,BT-549 breast,3050 nM
same,TGI,BT-549 breast,> 33300 nM
same,GI50,TK-10 renal,619 nM
same,TGI,TK-10 renal,2550 nM
same,GI50,HOP-92 NSCLC,706 nM
same,TGI,HOP-92 NSCLC,2240 nM
same,GI50,UO-31 renal,1120 nM
same,TGI,UO-31 renal,> 33300 nM
Nc1nc(N)c2c(n1)NC(c1ccc(Cl)cc1)CC(c1ccc(Nc3nc(NCCO)nc(Nc4ccc(Cl)cc4)n3)cc1)=N2 (configuration not stated),GI50,HS 578T breast,2220 nM
same,TGI,HS 578T breast,5010 nM
same,GI50,SNB-75 CNS,1590 nM
same,TGI,SNB-75 CNS,3970 nM
same,GI50,M14 melanoma,1900 nM
same,TGI,M14 melanoma,4390 nM
same,GI50,NCI-H226 lung,6470 nM
same,TGI,NCI-H226 lung,29800 nM
same,GI50,HT29 colon,1700 nM
same,TGI,HT29 colon,3680 nM
same,GI50,SK-OV-3 ovarian,14800 nM
same,TGI,SK-OV-3 ovarian,29300 nM
same,GI50,SW-620 colon,1620 nM
same,TGI,SW-620 colon,3300 nM
same,GI50,KM12 colon,3180 nM
same,TGI,KM12 colon,10300 nM
same,GI50,OVCAR-8 ovarian,1570 nM
same,TGI,OVCAR-8 ovarian,3270 nM
same,GI50,HCT-116 colon,1400 nM
same,TGI,HCT-116 colon,2690 nM
same,GI50,SNB-19 CNS,1990 nM
same,TGI,SNB-19 CNS,5810 nM
same,GI50,HL-60(TB) leukemia,1150 nM
same,TGI,HL-60(TB) leukemia,3940 nM
same,GI50,ACHN renal,4690 nM
same,TGI,ACHN renal,> 100000 nM
same,GI50,SF-268 CNS,4140 nM
same,TGI,SF-268 CNS,26100 nM
same,GI50,UACC-257 melanoma,1910 nM
same,TGI,UACC-257 melanoma,3740 nM
same,GI50,OVCAR-5 ovarian,4480 nM
same,TGI,OVCAR-5 ovarian,19800 nM
same,GI50,CAKI-1 renal,5360 nM
same,TGI,CAKI-1 renal,28200 nM
same,GI50,EKVX NSCLC,2010 nM
same,TGI,EKVX NSCLC,6880 nM
same,GI50,U251 CNS,1470 nM
same,TGI,U251 CNS,2920 nM
same,GI50,RXF 393 renal,1540 nM
same,TGI,RXF 393 renal,2970 nM
same,GI50,A498 renal,5900 nM
same,TGI,A498 renal,19800 nM
same,GI50,PC-3 prostate,1930 nM
same,TGI,PC-3 prostate,7550 nM
same,GI50,NCI/ADR-RES ovarian,4240 nM
same,TGI,NCI/ADR-RES ovarian,> 100000 nM
same,GI50,A549 NSCLC,4120 nM
same,TGI,A549 NSCLC,> 100000 nM
same,GI50,786-0 renal,1550 nM
same,TGI,786-0 renal,3040 nM
same,GI50,UACC-62 melanoma,2030 nM
same,TGI,UACC-62 melanoma,4280 nM
same,GI50,HOP-62 NSCLC,2830 nM
same,TGI,HOP-62 NSCLC,10900 nM
same,GI50,NCI-H460 lung,1720 nM
same,TGI,NCI-H460 lung,3320 nM
same,GI50,OVCAR-4 ovarian,1960 nM
same,TGI,OVCAR-4 ovarian,5040 nM
same,GI50,NCI-H522 lung,1560 nM
same,TGI,NCI-H522 lung,3160 nM
same,GI50,MCF7 breast,1200 nM
same,TGI,MCF7 breast,2570 nM
same,GI50,LOX IMVI melanoma,1450 nM
same,TGI,LOX IMVI melanoma,2860 nM
same,GI50,SK-MEL-5 melanoma,1480 nM
same,TGI,SK-MEL-5 melanoma,2800 nM
same,GI50,MOLT-4 leukemia,792 nM
same,TGI,MOLT-4 leukemia,3920 nM
same,GI50,HCT-15 colon,1290 nM
same,TGI,HCT-15 colon,2800 nM
same,GI50,SK-MEL-2 melanoma,1450 nM
same,TGI,SK-MEL-2 melanoma,2830 nM
same,GI50,HCC-2998 colon,1440 nM
same,TGI,HCC-2998 colon,2780 nM
same,GI50,T-47D breast,1710 nM
same,TGI,T-47D breast,6510 nM
same,GI50,MDA-MB-231 breast,1750 nM
same,TGI,MDA-MB-231 breast,3920 nM
same,GI50,COLO 205 colon,1510 nM
same,TGI,COLO 205 colon,3590 nM
same,GI50,SF-539 CNS,1680 nM
same,TGI,SF-539 CNS,3320 nM
same,GI50,IGROV1 ovarian,1710 nM
same,TGI,IGROV1 ovarian,3580 nM
same,GI50,DU-145 prostate,2220 nM
same,TGI,DU-145 prostate,5810 nM
same,GI50,SK-MEL-28 melanoma,1730 nM
same,TGI,SK-MEL-28 melanoma,3110 nM
same,GI50,SF-295 CNS,1730 nM
same,TGI,SF-295 CNS,3670 nM
same,GI50,K-562 leukemia,713 nM
same,TGI,K-562 leukemia,3200 nM
same,GI50,MDA-MB-435,1630 nM
same,TGI,MDA-MB-435,3180 nM
same,GI50,BT-549 breast,2250 nM
same,TGI,BT-549 breast,5890 nM
same,GI50,TK-10 renal,10600 nM
same,TGI,TK-10 renal,25300 nM
same,GI50,HOP-92 NSCLC,1290 nM
same,TGI,HOP-92 NSCLC,3120 nM
same,GI50,UO-31 renal,3100 nM
same,TGI,UO-31 renal,15300 nM

# Reference: PubChem BioAssay (NCI)
